Test results published in patent US11529341B2, “Bicyclic compounds as inhibitors of PD1/PD-L1 interaction/activation” (JUBILANT PRODEL LLC, priority 2018, dated 2022).

Biological target: T1, PD-1/PD-L1 interaction (Homo sapiens, UniProt Q9NZQ7)
T1 construct: Tag1 (undisclosed kit tag); purchased CisBio 63ADK000CPAPEG
Assay: PD-1/PD-L1 Homogenous Time-Resolved Fluorescence (HTRF) binding assay (CisBio kit)
Details: Biochemical PD1/PD-L1 inhibition
Method: PD-L1 Enzyme Assay: Homogenous Time-Resolved Fluorescence (HTRF) Binding Assay
All binding studies were performed using PD-1/PD-L1 Binding Assay Kit from CisBio (Catalog #63ADK000CPAPEG), according to the manufacturer's protocol. The interaction between Tag1-PD-1 and […] was detected by anti-Tag1-Eu^3+ (HTRF donor) and anti-Tag2-XL665 (HTRF acceptor). When the donor and acceptor antibodies were brought to close proximity due to PD-1 and PD-L1 binding, excitation of the donor antibody triggered fluorescent resonance energy transfer (FRET) towards the acceptor antibody, which in turn emitted specifically at 665 nm. This specific signal is positively proportional to PD-1/PD-L1 interaction. The compounds blocking PD-1/PD-L1 interaction will cause a reduction in HTRF signal. The necessary reagents were mixed in the following order: 2 μl compounds (or diluents buffer), 4 μl PD-L1 protein, 4 μl PD-1 protein. After an incubation of 15 minutes, 5 μl of anti-Tag1-Eu^3+ and 5 μl of anti-Tag2-XL665 were added. The plate was sealed and incubated at room temperature for 1 h. The fluorescence emission was read at two different wavelengths (665 nm and 620 nm) on a BMG PheraStar® multi-plate reader. Results were calculated from the 665 nm and 620 nm fluorescence signal and expressed in HTRF ratio=(665 nm/620 nm)×10^4.

T1 sequence (Q9NZQ7 19-238 limits assumed): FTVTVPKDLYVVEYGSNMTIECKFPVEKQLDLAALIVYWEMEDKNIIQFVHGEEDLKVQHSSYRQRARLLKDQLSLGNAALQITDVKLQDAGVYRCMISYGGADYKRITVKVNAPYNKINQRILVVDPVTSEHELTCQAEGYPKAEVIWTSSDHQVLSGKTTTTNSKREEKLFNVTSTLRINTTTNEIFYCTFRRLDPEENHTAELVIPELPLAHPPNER

Row | Compound | IC50
1 | N#Cc1cncc(COc2cc(OCc3cccc(-c4ccccc4)c3C#N)c3c(c2CN2CCC[C@@H](C(=O)O)C2)CCC3)c1 [Compound 71, (R)-1-((7-((2-cyano-[1,1′-biphenyl]-3-yl)methoxy)-5-((5-cyanopyridin-3-yl)methoxy)-2,3-dihydro-1H-inden-4-yl)methyl)piperidine-3-carboxylic acid] | < 100 nM
2 | Cc1c(COc2cc(OCc3cccc(C#N)c3)c(CN3CC4(COC4)C3)c3c2CCC3)cccc1-c1ccccc1 [Compound 39, 3-(((4-((2-oxa-6-azaspiro[3.3]heptan-6-yl)methyl)-7-((2-methyl-[1,1′-biphenyl]-3-yl)methoxy)-2,3-dihydro-1H-inden-5-yl)oxy)methyl)benzonitrile] | 100 to 500 nM
3 | Cc1c(COc2cc(OCCCCC(N)=O)c(CN3CCCC[C@H]3C(=O)O)c3c2CCC3)cccc1-c1ccccc1 [Compound 68, (S)-1-((5-((5-amino-5-oxopentyl)oxy)-7-((2-methyl-[1,1′-biphenyl]-3-yl)methoxy)-2,3-dihydro-1H-inden-4-yl)methyl)piperidine-2-carboxylic acid] | < 100 nM
4 | COc1cc(OCc2cccc(-c3ccc4c(c3)OCCO4)c2C)c2c(c1CN1CCCC[C@H]1C(=O)O)CCC2 [Compound 84, (S)-1-((7-((3-(2,3-dihydrobenzo[b][1,4]dioxin-6-yl)-2-methylbenzyl)oxy)-5-methoxy-2,3-dihydro-1H-inden-4-yl)methyl)piperidine-2-carboxylic acid] | < 100 nM
5 | CC(=O)NCCN(C)Cc1c(OCc2cccc(C#N)c2)cc(OCc2cccc(-c3ccccc3)c2C)c2c1CCC2 [Compound 53, N-(2-(((5-((3-cyanobenzyl)oxy)-7-((2-methyl-[1,1′-biphenyl]-3-yl)methoxy)-2,3-dihydro-1H-inden-4-yl)methyl)(methyl)amino)ethyl)acetamide] | < 100 nM
6 | CC(=O)NCCCCCC(=O)NCc1c(OCc2cccc(C#N)c2)cc(OCc2cccc(-c3ccccc3)c2C)c2c1CCC2 [Compound 91, 6-acetamido-N-((5-((3-cyanobenzyl)oxy)-7-((2-methyl-[1,1′-biphenyl]-3-yl)methoxy)-2,3-dihydro-1H-inden-4-yl)methyl)hexanamide] | > 500 nM
7 | COc1cc(OCc2cccc(-c3ccccc3)c2C#N)c2c(c1CNC(CO)(CO)CO)CCC2 [Compound 58, 3-(((7-(((1,3-dihydroxy-2-(hydroxymethyl)propan-2-yl)amino)methyl)-6-methoxy-2,3-dihydro-1H-inden-4-yl)oxy)methyl)-[1,1′-biphenyl]-2-carbonitrile] | < 100 nM
8 | CC(=O)NCCNCc1c(OCc2cccc(C(N)=O)c2)cc(OCc2cccc(-c3ccccc3)c2C)c2c1CCC2 [Compound 95, 3-(((4-(((2-acetamidoethyl)amino)methyl)-7-((2-methyl-[1,1′-biphenyl]-3-yl)methoxy)-2,3-dihydro-1H-inden-5-yl)oxy)methyl)benzamide] | < 100 nM
9 | Cc1c(COc2ccc(CNC(C)C(=O)O)c3c2CCC3)cccc1-c1ccccc1 (stereo not drawn) [Compound 24, ((7-((2-methyl-[1,1′-biphenyl]-3-yl)methoxy)-2,3-dihydro-1H-inden-4-yl)methyl)alanine] | > 500 nM
10 | CC(=O)NCCNCc1c(OCCCCC(=O)O)cc(OCc2cccc(-c3ccccc3)c2C)c2c1CCC2 [Compound 65, 5-((4-(((2-acetamidoethyl)amino)methyl)-7-((2-methyl-[1,1′-biphenyl]-3-yl)methoxy)-2,3-dihydro-1H-inden-5-yl)oxy)pentanoic acid] | < 100 nM
11 | COc1cc(OCc2cccc(-c3ccccc3)c2C)c2c(c1CN1CCOC[C@H]1C(=O)O)CCC2 [Compound 98, (S)-4-((5-methoxy-7-((2-methyl-[1,1′-biphenyl]-3-yl)methoxy)-2,3-dihydro-1H-inden-4-yl)methyl)morpholine-3-carboxylic acid] | < 100 nM
12 | Cc1c(COc2cc(OCC3CCCN(C)C3)c(CN3CCCC[C@H]3C(=O)O)c3c2CCC3)cccc1-c1ccccc1 (stereo partly drawn) [Compound 77, (2S)-1-((7-((2-methyl-[1,1′-biphenyl]-3-yl)methoxy)-5-((1-methylpiperidin-3-yl)methoxy)-2,3-dihydro-1H-inden-4-yl)methyl)piperidine-2-carboxylic acid] | < 100 nM
13 | N#Cc1cncc(COc2cc(OCc3cccc(-c4ccccc4)c3C#N)c3c(c2CN2C[C@H](O)C[C@H]2C(=O)O)CCC3)c1 [Compound 70, (2S,4R)-1-((7-((2-cyano-[1,1′-biphenyl]-3-yl)methoxy)-5-((5-cyanopyridin-3-yl)methoxy)-2,3-dihydro-1H-inden-4-yl)methyl)-4-hydroxypyrrolidine-2-carboxylic acid] | < 100 nM
14 | COc1cc(OCc2cccc(-c3ccccc3)c2C#N)c2c(c1CN1CCCCC1CC(=O)O)CCC2 (stereo not drawn) [Compound 63, 2-(1-((7-((2-cyano-[1,1′-biphenyl]-3-yl)methoxy)-5-methoxy-2,3-dihydro-1H-inden-4-yl)methyl)piperidin-2-yl)acetic acid] | 100 to 500 nM
15 | Cc1c(COc2cc(OCc3cccc(C#N)c3)c(CN3CCCC[C@H]3C(N)=O)c3c2CCC3)cccc1-c1ccccc1 [Compound 37, (S)-1-((5-((3-cyanobenzyl)oxy)-7-((2-methyl-[1,1′-biphenyl]-3-yl)methoxy)-2,3-dihydro-1H-inden-4-yl)methyl)piperidine-2-carboxamide] | < 100 nM
16 | COC(=O)c1cc(CNCCNC(C)=O)c2c(c1OCc1cccc(-c3ccccc3)c1C)CCC2 [Compound 6, Methyl 7-(((2-acetamidoethyl)amino)methyl)-4-((2-methyl-[1,1′-biphenyl]-3-yl)methoxy)-2,3-dihydro-1H-indene-5-carboxylate] | > 500 nM
17 | COc1cc(OCc2cccc(-c3ccccc3)c2C#N)c2c(c1CNCCNC(C)=O)CCC2 [Compound 56, N-(2-(((7-((2-cyano-[1,1′-biphenyl]-3-yl)methoxy)-5-methoxy-2,3-dihydro-1H-inden-4-yl)methyl)amino)ethyl)acetamide] | < 100 nM
18 | Cc1c(COc2ccc(CNC3(C(=O)O)CC3)c3c2CCC3)cccc1-c1ccccc1 [Compound 19, 1-(((7-((2-methyl-[1,1′-biphenyl]-3-yl)methoxy)-2,3-dihydro-1H-inden-4-yl)methyl)amino)cyclopropane-1-carboxylic acid] | 100 to 500 nM
19 | Cc1c(COc2ccc(CN3CCCC[C@H]3C(=O)O)c3c2CCC3)cccc1-c1cccc2c1ccn2CCCN1CCC(F)(F)C1 [Compound 3, (S)-1-((7-((3-(1-(3-(3,3-difluoropyrrolidin-1-yl)propyl)-1H-indol-4-yl)-2-methylbenzyl)oxy)-2,3-dihydro-1H-inden-4-yl)methyl)piperidine-2-carboxylic acid] | > 500 nM
20 | CC(=O)NCCNCc1c(OCc2cccc(C#N)c2)cc(OCc2cccc(-c3ccccc3)c2C)c2c1CCC2 [Compound 34, N-(2-(((5-((3-cyanobenzyl)oxy)-7-((2-methyl-[1,1′-biphenyl]-3-yl)methoxy)-2,3-dihydro-1H-inden-4-yl)methyl)amino)ethyl)acetamide] | < 100 nM
21 | COc1cc(OCc2cccc(-c3ccccc3)c2C#N)c2c(c1CN1CCC[C@@H]3C[C@@]31C(=O)O)CCC2 (racemic) [Compound 62, rac-(1R,6S)-2-((7-((2-cyano-[1,1′-biphenyl]-3-yl)methoxy)-5-methoxy-2,3-dihydro-1H-inden-4-yl)methyl)-2-azabicyclo[4.1.0]heptane-1-carboxylic acid] | < 100 nM
